pEC50: −log10 of the molar value. Like-named read-outs stand apart in the source and are kept apart here.
What was measured:
[1] = system: HIV-1 subtype A RW/92/009; experiment: Inhibitory activity against clinical HIV-1 strain RW/92/009 in PBMC; assay type: cell-based; details: for pEC50: read-out: hPBMC/HIV-1 EC50; for EC90: read-out: hPBMC/HIV-1 EC90
Method: (§1) Preparation of virus: Clinical HIV-1 virus strains (Table 3) were obtained from the US NIH AIDS Research and Reference Reagent Library. PBMC were extracted from three fresh blood samples that were HIV and HBV seronegative, mixed and cultured, and PHA-P (phytohemagglutinin) was added to stimulate activation. The cells and virus were incubated at 37° C./5% CO2, and the cell culture supernatant after infection was collected and stored frozen at −80° C. Each viral titer was titrated in pooled PBMCs from three donors.
(§2) Assay of antiviral activity of compounds: Frozen PBMCs were resuspended in fresh culture medium (1×10^6 cells/mL), and added to a round-bottom 96-well plate ([…]). 100 μl of culture medium containing 2 times the final concentration of the compound was added to each well, and then 50 μL of virus solution was added (the final infection dose was MOI=0.002). After 7 days of culture, the reverse transcriptase activity in the supernatant was determined to evaluate HIV-1 replication. At the same time, a 96-well culture plate with only compounds and cells was prepared for the assay of compound cytotoxicity.

[2] = system: HIV-1 subtype C MW/93/959; experiment: Inhibitory activity against clinical HIV-1 strain MW/93/959 in PBMC; assay type: cell-based; details: for pEC50: read-out: hPBMC/HIV-1 EC50; for EC90: read-out: hPBMC/HIV-1 EC90
Method: as §1, §2

[3] = system: human immunodeficiency virus type 1 IIIB strain (HIV-1IIIB); experiment: Cell protection assay against HIV infection (MT-4 cells, XTT); assay type: cell-based; details: for CC50/EC50: MT-4 cells, HIV-1IIIB
Method: The protective effect of the test compound on MT-4 cells infected by human immunodeficiency virus type 1 IIIB strain (HIV-1IIIB) at different concentrations was evaluated.
The test compound was dissolved in DMSO at a concentration of 10 mM and stored at −20° C.
2) Test of the anti-HIV-1 IIIB infection activity of the compound: A starting concentration of 10 nM was used, and five serial five-fold dilutions were carried out on the compound. Each compound was present in the test medium at a concentration 2 folds of the final desired test concentration. 100 microliters (100 μL) of the solution of each concentration was added to triplicate wells for efficacy evaluation, and each concentration was added one well for colorimetric evaluation. AZT was purchased from Sigma Aldrich (St. Louis, MO, USA), and evaluated as a control compound in the antiviral assay.
(§3) Cell culture: MT-4 cells were passaged in a T-75 flask before use in the antiviral assay. On the day before the assay, cells were passaged in aliquots at a 1:2 ratio to ensure that they were in the exponential growth phase at the time of infection. Total cells and viable cells were quantified using a hemocytometer and trypan blue dye. The proportion of viable cells used for the assay was greater than 95%. The cells were resuspended in tissue culture medium at 5×10^4 cells per milliliter, and the resulting suspension was added to a drug-containing microtiter plate in a volume of 50 μL.
Virus preparation: The virus used for this assay was lymphotropic virus strain HIV-1IIIB. The viruses were amplified in CEM-SS cells for the preparation of virus stock solution. The pre-titered virus aliquot tube was taken from the refrigerator (−80° C.), and slowly thawed to room temperature in a biosafety cabinet. The viruses were diluted in the tissue culture medium. 50 μl of the diluted virus would produce 85% to 95% cell killing 6 days after infection. 50 μL of the diluted virus was added immediately to the microtiter plate containing cells and drugs.
(§4) Evaluation of the efficacy and toxicity of the compound with XTT: After culturing for six days in a 37° C., 5% CO2 incubator, tetrazolium dye XTT (2,3-bis(2-methoxy-4-nitro-5-sulfophenyl)-5-[(phenylamino)carbonyl]-2H-tetrazolium hydroxide) was added to the cell culture plate to conduct the test. The XTT solution was a 1 mg/ml RPMI1640 stock solution prepared on the same day. Phenazine methyl sulfate (PMS) solution at a concentration of 0.15 mg/ml was prepared in PBS, and stored in the dark at −20° C. XTT/PMS stock solution was prepared before use by adding 40 μl of PMS per milliliter of XTT solution. […] of XTT/PMS was added to each well of the plate, and the plate was re-incubated for 4 hours at 37° C. The plate was sealed with adhesive plate sealant, and gently shaked or inverted several times to mix the soluble formazan product. The absorbance was read at 450/650 nm.

[4] = system: HIV-1 subtype D UG/92/001; experiment: Inhibitory activity against clinical HIV-1 strain UG/92/001 in PBMC; assay type: cell-based; details: for pEC50: read-out: hPBMC/HIV-1 EC50; for EC90: read-out: hPBMC/HIV-1 EC90
Method: as §1, §2

MT-4 cells = experiment: Test of cytotoxicity of the compound (MT-4 cells, XTT); assay type: cell-based; details: 6 days
Method: (§5) 1) Test of cytotoxicity of the compound: The test compound was evaluated using a starting concentration of 100 nM and five serial half-log dilutions. Each compound was present in the test medium at a concentration 2 folds of the final desired test concentration. The compound was diluted to 1 mM in DMSO. The compound was then diluted to 200 nM in a drug dilution tube containing 998 μL of test medium (adding 2 μL of 1 mM stock). […] of the 200 nM solution was transferred into 680 μL of the test medium (half-log dilution), and a total of five serial dilutions were carried out. 100 microliters (100 μL) of the solution of each concentration was added to duplicate wells for cytotoxicity evaluation, and each concentration was added to one well for colorimetric evaluation.
as §3, §4

[5] = system: WT (wild type) pseudovirus; experiment: Pseudovirus-based assay of anti-HIV-1 activity, WT strain; assay type: cell-based; details: HEK-293T, 72 h
Method: (§6) The inhibitory activity against pseudoviruses containing common clinical mutation sites of HIV-1 integrase (G140S/Q148R, Q148R/N155H, E138K, Q148H, R263K and Y143R/Q148H) was determined.
(§7) Preparation of pseudovirus: Using the lentiviral plasmid pNL4-3-Luc-RE (HedgehogBio) as the backbone, an integrase point mutation plasmid was constructed. HEK293T cells (ATCC) were seeded in a 6-well plate at 5×10^5 cells per well. After 24 hours, when the cell density reached 60% to 80%, transfection was performed. pNL4-3-Luc-R-E- or pNL4-3-Luc-R-E--IN-mutant plasmid and lentivirus packaging plasmid pMD2.G (Beijing Zoman Bio) were added to the transfection reagent in a certain proportion. Cell transfection was performed according to the instructions of transfection reagent PEI25K (Maokang Biotechnology). After 48 hours, the supernatant was collected, centrifuged at 3000 rpm for 5 minutes, filtered with a 0.45 μm microporous membrane, aliquoted, and stored at −80° C. for later use. In HEK293T cells, the pseudovirus titer was determined based on luciferase activity.
(§8) Determination of antiviral activity of compounds: In a 96-well V-bottom plate, the compound to be tested was diluted with DMSO semi-logarithmically, and a compound solution 4 times the final concentration was prepared for later use. According to the results of different virus titrations, the virus was diluted with complete culture medium for later use. HEK293T cells were digested with trypsin to obtain a cell suspension of 2×10^5/mL. 50 µl of compound diluent, 50 µl of virus diluent and 100 µl of cell suspension were added successively to a 96-well flat-bottomed plate. The final concentration of the compound was 1000 nM to 0.1 nM. The 96-well plate was incubated in a 37° C., 5% CO2 incubator. After 72 hours, 100 µL of culture supernatant was pipetted out carefully from each well of the 96-well plate, 25 µL of Steady-Glo detection reagent (Promega, Cat #E2550) was added to each well in the dark, and then assayed on a machine (Tecan, Type #Spark).

[6] = system: HIV-1 integrase Y143R/Q148H pseudovirus; experiment: Pseudovirus-based assay of anti-HIV-1 activity, Y143R/Q148H strain; assay type: cell-based; details: HEK-293T, 72 h
Method: as §6, §7, §8

[7] = system: HIV-1 integrase Q148R/N155H pseudovirus; experiment: Pseudovirus-based assay of anti-HIV-1 activity, Q148R/N155H strain; assay type: cell-based; details: HEK-293T, 72 h
Method: as §6, §7, §8

[8] = system: HIV-1 integrase E138K pseudovirus; experiment: Pseudovirus-based assay of anti-HIV-1 activity, E138K strain; assay type: cell-based; details: HEK-293T, 72 h
Method: as §6, §7, §8

[9] = system: HIV-1 integrase R263K pseudovirus; experiment: Pseudovirus-based assay of anti-HIV-1 activity, R263K strain; assay type: cell-based; details: HEK-293T, 72 h
Method: as §6, §7, §8

[10] = Test of cytotoxicity of the compound (MT-4 cells, XTT); assay type: cell-based; details: human
Method: as §5, §3, §4

[11] = system: HIV-1 integrase Q148H pseudovirus; experiment: Pseudovirus-based assay of anti-HIV-1 activity, Q148H strain; assay type: cell-based; details: HEK-293T, 72 h
Method: as §6, §7, §8

[12] = system: HIV-1 integrase G140S/Q148R pseudovirus; experiment: Pseudovirus-based assay of anti-HIV-1 activity, G140S/Q148R strain; assay type: cell-based; details: HEK-293T, 72 h
Method: as §6, §7, §8

[13] = system: common clinical integrase mutant strains (G140S/Q148R, Q148R/N155H, E138K, Q148H, R263K and Y143R/Q148H); experiment: Pseudovirus assay, common clinical integrase mutant strains (overall comparison); assay type: cell-based, HIV-1; details: R263K and Y143R/Q148H pseudoviruses
Method: as §6, §7
Determination of antiviral activity of compounds: In a 96-well V-bottom plate, the compound to be tested was diluted with DMSO semi-logarithmically, and a compound solution 4 times the final concentration was prepared for later use. […]

[14] = system: HIV-1 clinical isolates (RW/92/009, MW/93/959, UG/92/001); experiment: Clinical HIV-1 isolates in human PBMC (overall comparison); assay type: cell-based; details: RW/92/009, MW/93/959, UG/92/001 in human PBMC
Method: as §1, §2

[15] = RW/92/009, human PBMC, 7 days, reverse transcriptase activity in supernatant
[16] = MW/93/959, human PBMC, 7 days, reverse transcriptase activity in supernatant
[17] = UG/92/001, human PBMC, 7 days, reverse transcriptase activity in supernatant
[18] = Human immunodeficiency virus 1, 168 h, RW/92/009, human PBMC, 7 days, reverse transcriptase activity in supernatant
[19] = Human immunodeficiency virus 1, 168 h, MW/93/959, human PBMC, 7 days, reverse transcriptase activity in supernatant
[20] = Human immunodeficiency virus 1, 168 h, UG/92/001, human PBMC, 7 days, reverse transcriptase activity in supernatant
[21] = Human immunodeficiency virus 1, IIIB, MT4, 144 h
[22] = Human immunodeficiency virus 1, PBMC, 168 h

Structure (SMILES) | CC50/EC50 [3] | pEC50 [5] | EC90 [5] [nM] | pEC50 [6] | EC90 [6] [nM] | pEC50 [7] | EC90 [7] [nM] | pEC50 [8] | EC90 [8] [nM] | pEC50 [9] | EC90 [9] [nM] | CC50 at 6 days [10] [nM] | pEC50 [11] | EC90 [11] [nM] | pEC50 [12] | EC90 [12] [nM] | pEC50 [3, 21] | further results
Cc1cn([C@H]2C[C@H](N=[N+]=[N-])[C@@H](CO)O2)c(=O)[nH]c1=O [AZT] | >250 |  |  |  |  |  |  |  |  |  |  |  |  |  |  |  |  | pEC50 [1, 15]: 8.45; EC90 [1, 15]: 75.5 nM; pEC50 [2, 16]: 9.51; EC90 [2, 16]: 38.6 nM; pEC50 ([3]; MT-4 cells infected by HIV-1IIIB, 6 days, XTT, read-out: EC50): 8.70; pEC50 [4, 17]: 8.40; EC90 [4, 17]: 62 nM; CC50 (MT-4 cells): > 500 nM
C[C@H]1CO[C@@H]2Cn3cc(C(=O)NCc4ccc(F)cc4F)c(=O)c(O)c3C(=O)N12 [Cabotegravir, cabotegravir] | >41.7 | 8.52 | 21.8 | 8.38 | 24.8 | 7.01 | > 1000 | 8.43 | 24.4 | 8.31 | 58.8 | > 100 | 8.44 | 15.4 | 7.20 | 301 |  | pEC50 [1, 18]: 10.05; EC90 [1, 18]: 0.59 nM; pEC50 [2, 19]: 10.22; EC90 [2, 19]: 0.67 nM; pEC50 ([3]; Human immunodeficiency virus 1, MT4, 144 h, MT-4 cells infected by HIV-1IIIB, 6 days, XTT, read-out: EC50): 8.62; pEC50 [4, 20]: 9.34; EC90 [4, 20]: 2.94 nM
O=C(NCc1ccc(F)cc1F)c1cn2c(c(O)c1=O)C(=O)N1[C@@H](C3CC3)CO[C@@H]1C2 [Compound 1] | >32.1 | 8.48 | 29.1 | 7.67 | 193 | 6.21 | > 1000 | 8.29 | 27.1 | 8.19 | 58.3 | > 100 | 7.80 | 105 | 6.61 | > 1000 | 8.51 | 
O=C(NCc1ccc(F)cc1F)c1cn2c(c(O)c1=O)C(=O)N1[C@@H](CF)CO[C@@H]1C2 [Compound 2] | >112 | 8.74 | 12.9 | 8.51 | 14.1 | 7.08 | > 1000 | 8.64 | 14.1 | 8.54 | 25.1 | > 100 | 8.66 | 12.5 | 7.37 | 194 | 9.05 | pEC50 [1, 22]: 10.70; EC90 [1, 22]: 0.4 nM; pEC50 [2, 22]: 11.15; EC90 [2, 22]: 0.37 nM; activity compared with cabotegravir [13]: better than that of cabotegravir with significant differences; pEC50 [4, 22]: 9.55; EC90 [4, 22]: 1.28 nM; activity compared with cabotegravir [14]: more active than cabotegravir
Cc1nnc(C(=O)NC(C)(C)c2nc(C(=O)NCc3ccc(F)cc3)c(O)c(=O)n2C)o1 [Raltegravir, raltegravir] |  | 8.26 | 60.7 | < 6.00 | > 1000 | < 6.00 | > 1000 | 8.09 | 46.2 | 8.15 | 68 |  | 6.67 | > 1000 | < 6.00 | > 1000 |  | 

Source: US20250188091A1, “PYRIDONE COMPOUND HAVING INTEGRASE INHIBITORY ACTIVITY AND PHARMACEUTICAL USE THEREOF” (priority 2021, published 2025)
